Measurements: patent EP1192131B1, “METHOD OF INHIBITING AMYLOID PROTEIN AGGREGATION AND IMAGING AMYLOID DEPOSITS USING ISOINDOLINE DERIVATIVES” (Warner-Lambert Company LLC, priority 1999, dated 2000)
Several values for one entry are separate records, joined by “and”; a condition that tells them apart may be missing. Equal values may be shown once. Read-outs that look alike come from different tables or passages of the source.

Key:
Assay type in all cases: biochemical
Aβ (1-42) = target: T1, Aβ (1-42) (Homo sapiens, UniProt P05067); assay: BATYM assay, Aβ (1-42) aggregation, Thioflavin T fluorescence
T1 construct: Required Aβ (1-42)(California Peptide) was dried from its hexafluoroisopropanol (HFIP) stock solution; purchased California Peptide
T1 sequence (P05067 672-713): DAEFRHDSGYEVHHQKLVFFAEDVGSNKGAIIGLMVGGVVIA
Experimental: Required Aβ (1-42)(California Peptide) was dried from its hexafluoroisopropanol (HFIP) stock solution. The Aβ (1-42) was dissolved in dimethylsulfoxide (DMSO) and then mixed with phosphate buffered saline (PBS) (pH 7.4). The mixed Aβ (1-42) solution was filtered through a […] Omnipore membrane syringe filter (Millipore, Bedford, MA). The compound to be tested in DMSO (50 times concentrate) was put into each well (0.5 µL/well) of a 96-well plate. The Aβ (1-42) solution was added into each well (24.5 µL/well). The plate was centrifuged at 1,000 g for 5 minutes and incubated at 37°C for 1 day (Aβ 1-42; final concentration 100 µM).
After incubation Thioflavin T (ThT) (30 µM) solution in glycine-NaOH buffer (pH 8.5, 50 mM) was added into each well (250 µL/well), fluorescence was measured (ex. 440/20 nm; em 485/20 nm) using a fluorescence plate reader. The inhibitory activity was calculated as the reduction of fluorescence with the following formula: Inhibition (%) = {(F(Aβ)-F(Aβ+compound)}/{F(Aβ)-F (solvent+compound)} × 100 [formula]
The IC50s (concentration of test compound required to cause a 50% inhibition of aggregation) were calculated by a curve fitting program using the following equation. The data were obtained from two different experiments in triplicate. Inhibition (x) = 100-100/{1 + (x/IC50)^n }, [formula] x = concentration of tested compound (M), IC50 = (M), n = Hill coefficient.

Aβ (1-40) peptide = target: T2, Aβ (1-40) peptide (Homo sapiens, UniProt P05067); assay: BAPA (Beta-Amyloid Peptide Aggregation, pH 6.0), filtration endpoint assay
T2 construct: 10 µL 0.5 mg/mL Aβ (1-40) peptide in 20% HFIP
T2 sequence (P05067 672-711): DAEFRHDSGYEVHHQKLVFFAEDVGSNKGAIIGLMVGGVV
Experimental: BAPA (Beta-Amyloid Peptide Aggregation
This assay is used to provide a measure of inhibition by a compound against the aggregation behavior of the beta amyloid peptide.
The purpose of this assay is to provide a higher volume method of assaying the amount of beta amyloid aggregation using an endpoint assay based on filtration. In this assay, hexafluoroisopropanol (HFIP) is used to break down the initial amyloid peptide to a monomer state and use a concentration of 33 µM which is high enough so that aggregation will occur at pH 6.0 in several hours.
β-Amyloid Peptide Aggregation. pH 6 0 (BAPA)
In a 96-well plate (Costar 3794), we add 25 µL 50 mM Phosphate Buffer, pH 6.0, 10 µL 0.5 mg/mL Aβ (1-40) peptide in 20% HFIP + 0.1 µL/assay radioiodinated ^125I Aβ (1-40) [^125I Aβ(1-40)], and 1 µL of the compound to be tested starting at 50 mM with a concentration of DMSO <1%. Then, we incubate for 2 to 4 hours at room temperature. We stop the reaction with 200 µL of 50 mM phosphate buffer, pH 6.0, and filter it through a 0.2 µm 96-well filter plate (Millipore MAGU N22) We wash the filter plate with 100 µL of the same phosphate buffer. Aggregation was detected on a Microbeta counter after impregnating the filters with Meltilex (1450-441) and is corrected for background

Aβ(1-40) [1] = target: T3, Aβ(1-40) (Homo sapiens, UniProt P05067); assay: BASST (Beta-Amyloid Self-seeding, ThioflavinT), inhibition of self-seeded amyloid fibril growth; design: 30 µM soluble Aβ (1-40) in deionized water in assay buffer; settings: 30 µM soluble Aβ (1-40), 37°C, 3 to 5 hours, thioflavin T fluorescence, letter in parentheses = lot of compound (no letter = Lot P)
T3 sequence (P05067 672-711): as above
Experimental: BASST (Beta-Amyloid Self-seeding, ThioflavinT)
(§1) An assay for inhibitors of self-seeded amyloid fibril growth
Assay Buffer - 50 mM sodium phosphate, pH 7.5, 100 mM NaCl, 0.02% NaN3, 1 M urea (filter and store at 4°C).
Soluble Aβ (1-40) - 2.2 mg/mL in deionized H2O (store in aliquots at -20°C, keep on ice when thawed) will self-seed after 1 week storage. Typically, the solution should be stored until no lag phase is seen in the assay.
Final assay conditions: 30 µM soluble Aβ (1-40) in deionized water in assay buffer. Compound to be tested is dissolved in DMSO, typically 5-50 mM stock, such that the final concentration of DMSO is <1% v/v in the assay.
Assay: Reaction mixture for 50 assays (on ice) comprised of 1 µL of soluble Aβ (1-40) + 13.5 µL assay buffer per assay. The following are the amounts of the components of the reaction mixture that result in each of the 50 assay wells. 50 µL soluble Aβ (1-40) 675 µL assay buffer
• 1) Prepare the reaction mix above by mixing the components and storing on ice. • 2) Pipet 14.5 µL of reaction mixture into each of 50 wells of a polystyrene U-bottom 96-well microtiter plate (Coming 25881-96) on ice. • 3) Add 1.7 µL of diluted compound to be tested to each well in a column of eight, including solvent control. Serial 3-fold dilutions from 1 mM (100 µM final) in assay buffer -urea = 7 dilutions + zero. Each 96-well plate can therefore accommodate 11 samples + 1 Congo Red control (0.039-5 µM final in 2-fold steps). • 4) Seal the plate with aluminum film and incubate for 10 minutes on ice. • 5) Raise the temperature to 37°C and incubate for 3 to 5 hours (depends on the lot of the peptide). • 6) Remove the aluminum film and add 250 µL/well of 5 µM thioflavin T (ThT) [T-3516, Sigma-Aldrich] in 50 mM glycine-NaOH, pH 8.5. Read fluorescence on a plate reader (ex = 440 nm/20 nm; em = 485 nm/20 nm) within 5 minutes.

Aβ(1-40) [2] = target: T3, Aβ(1-40); assay: BASSR (Beta-Amyloid Self-Seeding Radioassay), inhibition of self-seeded amyloid fibril growth; design: Soluble Aβ(1-40) peptide (Bachem, Torrance, CA); purchased Bachem, Torrance, CA; settings: 30 µM soluble Aβ (1-40) + 125I-labeled Aβ(1-40), 37°C, 3 to 5 hours, several values in a cell = repeat values, letter in parentheses = lot of compound (no letter = Lot P), (ppt), (v-shape) flags
Experimental: BASSR (Beta-Amyloid Self-Seeding Radioassay)
as §1
Assay Buffer - 50 mM sodium phosphate, pH 7.5, 100 mM NaCl, 0.02% NaN3, 1 M urea (filter and store at 4°C)
Soluble Aβ(1-40) peptide (Bachem, Torrance, CA) - 2.2 mg/mL in deionized H2O (stored in aliquots at -20°C, keep on ice when thawed) will self-seed after 1 week storage. Typically, the solution should be stored until no lag phase is seen in the assay.
^125I-labeled Aβ (1-40) - 150K-350K cpm/µL in 100% acetonitrile -0.1% trifluoroacetic acid (TFA) -1% β-mercaptoethanol (aliquots stored at -20°C) ^125I-labeled Aβ(1-40) can be made in accordance with the procedure set forth by H. LeVine, III in Neurobiol. Aging, 16:755 (1995), which is hereby incorporated by reference, or this reagent may be purchased from Amersham, Arlington Heights, Illinois.
Final assay conditions: 30 µM soluble Aβ (1-40) in deionized water in assay buffer + 20-50K cpm ^125I-labeled Aβ(1-40) per assay. Compound to be tested is dissolved in dimethylsulfoxide (DMSO), typically 5-50 mM stock, such that the final concentration of DMSO is <1% v/v in the assay.
Assay: Reaction mixture for 50 assays (on ice) is comprised of 0.1-0.2 µL of ^125I-labeled A^125I-labeled Aβ(1-40) + 1 µL of soluble Aβ (1-40) + 13.5 µL assay buffer per assay. The following are the amounts of the components of the reaction mixture sufficient for 50 assay wells. 5-10 µL ^125I-labeled Aβ (1-40) dried down 675 µL assay buffer 50 µL soluble Aβ (1-40)
• 1) Prepare reaction mixture above by mixing components and storing on ice. • 2) Pipet 14.5 µL of reaction mixture into each of 50 wells on a polypropylene U-bottom 96-well microtiter plate on ice (Costar 3794). • 3) Add 1.7 µL, of diluted compound to be tested to each well in a column of eight, including solvent control. Serial 3-fold dilutions from 1 mM (100 µM final) in assay buffer -urea = 7 dilutions + zero. Each 96-well plate can therefore accommodate 11 samples + 1 Congo Red control (0.039-5 µM final in 2-fold steps). • 4) Seal the plate with aluminum film (Beckman 538619) and incubate for 10 minutes on ice. • 5) Raise the temperature to 37°C and incubate for 3 to 5 hours (depending on the lot of the peptide). • 6) Remove the aluminum film and add 200 µL/well of ice cold assay buffer with urea, collecting the radiolabeled fibrils by vacuum filtration through 0.2 µm pore size GVWP filters in 96-well plates (Millipore MAGV N22, Bedford, MA). Determine the radioactivity of the filters using standard methods well-known to those skilled in the art.

[3] = Aβ 1-42 final concentration 100 µM, 37°C, 1 day, letter in parentheses = lot of compound (no letter = Lot P), read-out: BATYM IC50
[4] = Aβ (1-40) 33 µM, pH 6.0, 2 to 4 hours at room temperature; letter in parentheses = lot of compound (no letter = Lot P); read-out: BAPA IC50
[5] = read-out: BASST IC50 (converted)
[6] = read-out: BATYM IC50, Aβ 1-42 final concentration 100 µM, 37°C, 1 day, letter in parentheses = lot of compound (no letter = Lot P)
[7] = read-out: BAPA IC50; Aβ (1-40) 33 µM, pH 6.0, 2 to 4 hours at room temperature; letter in parentheses = lot of compound (no letter = Lot P)

Row | Molecule | IC50 (Aβ (1-42); [3]) | IC50 (Aβ(1-40) [1]; [5]) | IC50 (Aβ (1-42); [6]) | IC50 (Aβ(1-40) [1]; read-out: BASST IC50) | further results
1 | 4-Methoxy-5-nitro-2-[2-(3,4,5-trimethoxyphenyl)-2,3-dihydro-1H-isoindol-5-ylamino]benzoic acid [Example 3] | 17.4 µM | 3 µM and 2.1 µM |  |  | IC50 (Aβ (1-40) peptide; [4]): 64 µM
2 | COc1ccc(N2Cc3ccc(Nc4ccccc4C(=O)O)cc3C2)c(OC)c1OC [Example 1, 2-[2-(2,3,4-Trimethoxy-phenyl)-2,3-dihydro-1H-isoindol-5-ylamino]-benzoic acid] | 11.3 µM and 46.4 µM and 59.7 µM | 2 µM and 1.6 µM and 3 µM (2×) and 15 µM (2×) |  |  | IC50 (Aβ (1-40) peptide; [4]): 72 µM
3 | O=C(O)c1cc([N+](=O)[O-])ccc1Nc1ccc2c(c1)CN(c1ccc(Cl)c(Cl)c1)C2 [Example 5, 2-[2-(3,4-Dichlorophenyl)-2,3-dihydro-1H-isoindol-5-ylamino]-5-nitro-benzoic acid] | 11.4 µM | 3 µM |  |  | IC50 (Aβ(1-40) [2]; read-out: BASSR IC50 (converted)): 5 µM and 4.1 µM and 3 µM
4 | O=C(O)c1cc([N+](=O)[O-])ccc1Nc1ccc2c(c1)CN(c1cccc(Cl)c1)C2 [Example 11, 2-[2-(3-Chloro-phenyl)-2,3-dihydro-1H-isoindol-5-ylamino]-5-nitro-benzoic acid] |  |  | 12.6 µM | 0.8 µM and 1 µM | IC50 (Aβ (1-40) peptide; [7]): > 100 µM
5 | O=C(O)c1ccccc1Nc1ccc2c(c1)CN(c1ccccc1)C2 [Example 13, 2-(2-Phenyl-2,3-dihydro-1H-isoindol-5-ylamino)-benzoic acid] |  |  | 90.2 µM and 60 µM and > 100 µM and 79.7 µM and 83 µM |  | IC50 (Aβ(1-40) [2]; read-out: BASSR IC50): > 100 µM and 52 µM and 60 µM
6 | O=C(O)c1cc([N+](=O)[O-])ccc1Nc1ccc2c(c1)CN(c1cccc(Cl)c1)C2 [Example 14, 2-[2-(3-Chloro-phenyl)-2,3-dihydro-1H-isoindol-5-ylamino]-5-nitro-benzoic acid] |  |  | 12.6 µM | 0.8 µM and 1 µM | IC50 (Aβ (1-40) peptide; [7]): > 100 µM
7 | O=C(O)c1cccnc1Nc1ccc2c(c1)CN(c1ccc(Cl)c(Cl)c1)C2 [Example 24, 2-[2-(3,4-Dichloro-phenyl)-2,3-dihydro-1H-isoindol-5-ylamino]-nicotinic acid] |  |  |  | 0.3 µM | IC50 (Aβ(1-40) [2]; read-out: BASSR IC50): 18 µM
